Results: patent US11980598B2, “N-(2-(substituted-naphth-1-yl)ethyl) substituted amide compound, preparation and uses thereof” (BEIJING GREATWAY PHARMACEUTICAL TECHNOLOGY CO., LTD., priority 2017, dated 2024)

Experiments:
[1] = In vitro metabolism study, human liver microsomal incubation system; format: in vitro ADME
Procedure: TSQ Quantum liquid chromatography-mass spectrometer (LC/MS/MS) from Finnigan Inc, USA, chromatography column: TSKgel Amide-80 column (2.0 mm I.D.×100 mm, 5 μm); mobile phase: acetonitrile-water-formic acid (50:50:0.1); flow rate: 0.2 mL/min; injection volume: 5 μL; column temperature: room temperature. Ionization source is electrospray ionization (ESI) with 4.8 KV of spray voltage; capillary temperature (TEM): 300° C.; sheath gas: N2, flow rate: 10 psi; auxiliary gas: N2, flow rate: 1 psi; collision gas (CID): Ar at a pressure of 1.5 mTorr. The mass spectrometry scanning method was selective reaction monitoring (SRM) and detected by positive ion method. The internal standard was a […] solution of aconitine in acetonitrile, the minimum limit of quantification was 5 ng/mL, and the correlation coefficient was >0.99.
Approximately 10 mg of each sample to be tested was accurately weighed, dissolved in 0.1 mL of DMSO, and serially diluted with purified water to a 10 μM, 1 μM standard stock solution. An ice bath was operated and the incubation system for detection was formulated according to Table 4. NADPH was added to the incubation system to start the reaction, and then 50 μL was immediately added to 150 μL acetonitrile as a zero-time sample and a 1 μM standard curve sample. Another 1 μM standard stock solution was added to the incubation system, and then 50 μL was immediately added to 150 μL acetonitrile as a 0.1 μM standard curve sample. […] Each sample was shaken, and centrifuged at 18000 g for 10 min. The supernatant was taken for LC/MS/MS injection and determination.

[2] = molecular target: human MT1 receptor membrane protein (Homo sapiens (Human), UniProt P48039); experiment: MT1 receptor binding test ([3H]-Melotonin competition); conditions: for MT1 binding ratio (I %): prescreening, 10^−5 M
human MT1 receptor membrane protein, sequence (P48039 whole entry): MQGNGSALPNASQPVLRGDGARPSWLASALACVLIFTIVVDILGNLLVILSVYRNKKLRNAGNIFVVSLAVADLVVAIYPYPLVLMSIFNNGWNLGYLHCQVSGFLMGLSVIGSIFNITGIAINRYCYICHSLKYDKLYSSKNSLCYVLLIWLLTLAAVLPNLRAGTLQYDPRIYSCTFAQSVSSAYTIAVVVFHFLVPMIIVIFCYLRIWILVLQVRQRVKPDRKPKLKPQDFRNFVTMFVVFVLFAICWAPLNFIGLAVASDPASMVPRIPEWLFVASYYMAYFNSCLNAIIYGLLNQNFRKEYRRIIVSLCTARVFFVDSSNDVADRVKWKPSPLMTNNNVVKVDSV
Procedure: (§1) The receptors included a MT1/MT2 receptor and a 5-HT2C receptor. The test was divided into two parts: prescreening and rescreening. The results of prescreening were expressed as the percentage of binding, and the results of rescreening were expressed as the IC50 value (in M, i.e., mol/L).
(§2) (3) Tris-HCl buffer formulation: 50 mM Tris-HCl Buffer, 1 mM EDTA, 5 mM MgCl2, 0.1% NaN3, and then a certain proportion of PMSF was added to make pH 7.4.
(§3) (4) The example compound to be tested was dissolved in DMSO and formulated as a stock solution of 10^−2 M, and then diluted with distilled water to a concentration gradient of […]. The prescreening of the MT receptor binding test was performed at the concentration of 10^−5 M; the prescreening of the 5-HT2C receptor binding test was performed at the concentrations of 10^−5 and 10^−7 M.
(§4) The statistical analysis was performed using GraphPad Prism 5.0 software. The formula for receptor binding test was: inhibition (%)=[(total CPM of binding−CPM of tube with drug)/(total CPM of binding−non-specific CPM)]×100%, wherein CPM was count of a radioactive intensity.
(§5) 10 μL of receptor membrane protein MT1 or MT2 was added to all the tubes. In non-specific binding tubes, 50 μL of a corresponding unlabeled ligand Ago at a concentration of 10^4 M was added to a final concentration of 10 μM, and pre-reacted for 30 minutes. In test tubes, 30 μL of test drug (MT1: a concentration of 10^4-10^−10 M, MT2: a concentration of […]) was added, respectively; all tubes were added with 40 μL [^3H]-Melotonin, respectively. […] The filter paper was taken out and dried by baking, and then placed in a scintillation bottle. 1 mL of the scintillation liquid was added, and the radioactive intensity was measured by a liquid scintillation counter.

Kunming mice [3] = experiment: Tail suspension test (TST) in mice; format: in vivo, mouse; conditions: 10 mg/kg intraperitoneal, 3 days, last 4 of 6 min
Procedure: (§6) Animals: Kunming mice, male, body weight 18-22 g, SPF grade; SD rats, male, body weight 150-180 g, SPF grade. The test was carried out after acclimatization, and the animal was fasted for 12 hours before the test.
(§7) All drugs for the test were suspended and dispersed in a 1% aqueous solution of hydroxypropyl methylcellulose (HPMC), and shaken well before use. […] The doses for administration were all 10 mg/kg. For the concentration and volume for administration, see J Psychiatry Neurosci 2004; 29(2):126-133. The mice were intraperitoneally administered in a volume of 0.5 mL/20 g; and the rats were administered by i.g. in a volume of 2 mL/100 g.
Mice were randomly divided into groups according to weight balance. Intraperitoneal injection was administered for three consecutive days, once a day, and the tail suspension test were performed 30 minutes after the third day. The tail suspension box was 25×25×35 cm, and a small clip was connected with a rope at the center of the top plate. An adhesive tape was stuck to the tail of the mouse 2 cm away from the tail end, and the adhesive tape was clamped with the clip to make the mouse in an inverted position. The duration of immobility was recorded during the last 4 minutes of total 6 minutes observed.

Kunming mice [4] = experiment: Forced mouse swimming test; format: in vivo; conditions: 10 mg/kg intraperitoneal, 3 days, last 4 of 6 min
Procedure: as §6, §7
Animal grouping and administration method were the same as those in the tail suspension test in mice. The mice were placed in a round glass vessel with a height of 20 cm, an inner diameter of 12 cm, a water depth of 10 cm and a water temperature of 25° C.

SD rats = experiment: Forced rat swimming test; format: in vivo; conditions: 10 mg/kg i.g., 3 days, last 5 of 6 min
Procedure: as §6, §7
Rats were randomly divided into groups according to weight balance. Rats were administered by i.g. for three consecutive days, once a day. One hour after administration on the third day, the forced swimming test was performed. The rats were placed in a round glass jar with a height of 40 cm, an inner diameter of 18 cm, a water depth of 23 cm, and a water temperature of 25° C. The rats were allowed to swim for 6 minutes, and the accumulated immobility time in the last 5 minutes was recorded.

[5] = molecular target: human MT2 receptor membrane protein (Homo sapiens (Human), UniProt P49286); experiment: MT2 receptor binding test ([3H]-Melotonin competition); conditions: for MT2 binding ratio (I %): prescreening, 10^−5 M
human MT2 receptor membrane protein, sequence (P49286 whole entry): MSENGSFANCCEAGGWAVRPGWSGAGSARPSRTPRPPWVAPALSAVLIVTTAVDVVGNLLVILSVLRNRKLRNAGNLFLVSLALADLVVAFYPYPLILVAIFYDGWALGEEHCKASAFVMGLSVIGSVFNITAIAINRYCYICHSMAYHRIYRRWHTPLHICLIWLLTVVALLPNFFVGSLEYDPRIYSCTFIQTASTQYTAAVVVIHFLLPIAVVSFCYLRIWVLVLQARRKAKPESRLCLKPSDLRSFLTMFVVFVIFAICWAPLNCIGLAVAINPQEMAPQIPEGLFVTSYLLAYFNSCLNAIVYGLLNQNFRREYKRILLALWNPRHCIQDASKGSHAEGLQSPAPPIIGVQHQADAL
Procedure: as §1, §2, §3, §4, §5

[6] = incubation time 0 min, 1 μM, 1 mg/mL microsome, 37° C.

| Structure (SMILES) | Concentration measured at incubation time point [1, 6] [µM] | Concentration measured at incubation time point ([1]; incubation time 5 min) [µM] | Concentration measured at incubation time point ([1]; incubation time 15 min) [µM] | melting point [°C] | MT1 binding ratio (I %) [2] [%] | MT2 binding ratio (I %) [5] [%] | Concentration measured at incubation time point ([1]; incubation time 30 min) [µM] | IC50 ([2]; rescreening) [nM] | IC50 ([5]; rescreening) [nM] | Immobility time (Kunming mice [3]) [s] | Immobility time (Kunming mice [4]) [s] | Immobility time (SD rats) [s] |
| --- | --- | --- | --- | --- | --- | --- | --- | --- | --- | --- | --- | --- |
| [2H]C([2H])([2H])Oc1cc2c(CCNC(C)=O)cccc2cc1F [Example 3, N-(2-(6-fluoro-7-deuteromethoxy-naphthalen-1-yl)ethyl)acetamide] | 1.000 ± 0.041 | 0.395 ± 0.047 | 0.029 ± 0.002 | 141 to 144 | 66 | 57 | – | – | – | 77.7 ± 28.6 | 83.3 ± 30.7 | 76.1 ± 30.2 |
| COc1cc2c(CCNC(C)=O)cccc2cc1F [Example 4, N-(2-(6-fluoro-7-methoxy-naphthalen-1-yl)ethyl)acetamide] | 1.001 ± 0.017 | 0.601 ± 0.009 | 0.048 ± 0.003 | 140 to 144 | 77 | 84 | 0.011 ± 0.002 | 0.23 ± 0.24 | 0.67 ± 0.08 | 76.6 ± 18.4 | 75.6 ± 26.7 | 71.4 ± 40.3 |
| [2H]C([2H])([2H])Oc1ccc2cccc(CCNC(C)=O)c2c1 [d3-Ago, d3-Agomelatine, reference compound] | 0.999 ± 0.103 | 0.235 ± 0.022 | 0.004 ± 0.003 | – | – | – | – | – | – | – | – | – |
| CCC(=O)NCCc1cccc2cc(F)c(OC)cc12 [Example 7, N-(2-(6-fluoro-7-methoxy-naphthalen-1-yl)ethyl)propanamide] | 1.000 ± 0.035 | 0.505 ± 0.033 | 0.065 ± 0.007 | – | 73 | 69 | – | – | – | – | – | – |

The next lines start with results.

| Concentration measured at incubation time point [1, 6] [µM] | Concentration measured at incubation time point ([1]; incubation time 5 min) [µM] | Concentration measured at incubation time point ([1]; incubation time 15 min) [µM] | melting point [°C] | MT1 binding ratio (I %) [2] [%] | MT2 binding ratio (I %) [5] [%] | Concentration measured at incubation time point ([1]; incubation time 30 min) [µM] | IC50 ([2]; rescreening) [nM] | IC50 ([5]; rescreening) [nM] | Structure (SMILES) | Immobility time (Kunming mice [3]) [s] | Immobility time (Kunming mice [4]) [s] | Immobility time (SD rats) [s] |
| --- | --- | --- | --- | --- | --- | --- | --- | --- | --- | --- | --- | --- |
| 1.000 ± 0.032 | 0.675 ± 0.044 | 0.116 ± 0.010 | – | 81 | 44 | – | – | – | [2H]C([2H])([2H])Oc1cc2c(CCNC(=O)CC)cccc2cc1Cl [Example 5, N-(2-(6-chloro-7-deuteromethoxy-naphthalen-1-yl)ethyl)propanamide] | 68.8 ± 17.3 | 96.4 ± 14.4 | 66.2 ± 35.1 |
| 1.000 ± 0.036 | 0.420 ± 0.079 | 0.039 ± 0.003 | – | 84 | 78 | – | – | – | COc1cc2c(CCNC(C)=O)cccc2cc1Cl [Example 2, N-(2-(6-chloro-7-methoxy-naphthalen-1-yl)ethyl)acetamide] | 69.4 ± 23.3 | 81.3 ± 20.3 | 61.3 ± 29.8 |
| 1.000 ± 0.042 | 0.471 ± 0.051 | 0.056 ± 0.005 | – | 77 | 36 | – | – | – | CCC(=O)NCCc1cccc2cc(Cl)c(OC)cc12 [Example 6, N-(2-(6-chloro-7-methoxy-naphthalen-1-yl)ethyl)propanamide] | – | – | – |
